Test results reported in patent US4757076A, “Method of inhibiting aromatase” (Eli Lilly and Company, priority 1984, dated 1988).
Counter-ions that a name gives are not always drawn.

Columns and labels:
[1] = biological target: T1, aromatase (Rattus norvegicus, UniProt P22443); test: Aromatase inhibition in the rat ovarian microsome assay (modified isolated rat ovarian microsome method of Brodie et al.); type: biochemical; conditions: rat ovarian microsomes; substrate (androstenedione) concentration 0.1 μM
T1 construct: ovarian microsomes are obtained from rats treated with pregnant mares serum gonadotropin; from tissue; host or cells: ovarian microsomes of rats treated with pregnant mares serum gonadotropin
T1 sequence (P22443 1-508): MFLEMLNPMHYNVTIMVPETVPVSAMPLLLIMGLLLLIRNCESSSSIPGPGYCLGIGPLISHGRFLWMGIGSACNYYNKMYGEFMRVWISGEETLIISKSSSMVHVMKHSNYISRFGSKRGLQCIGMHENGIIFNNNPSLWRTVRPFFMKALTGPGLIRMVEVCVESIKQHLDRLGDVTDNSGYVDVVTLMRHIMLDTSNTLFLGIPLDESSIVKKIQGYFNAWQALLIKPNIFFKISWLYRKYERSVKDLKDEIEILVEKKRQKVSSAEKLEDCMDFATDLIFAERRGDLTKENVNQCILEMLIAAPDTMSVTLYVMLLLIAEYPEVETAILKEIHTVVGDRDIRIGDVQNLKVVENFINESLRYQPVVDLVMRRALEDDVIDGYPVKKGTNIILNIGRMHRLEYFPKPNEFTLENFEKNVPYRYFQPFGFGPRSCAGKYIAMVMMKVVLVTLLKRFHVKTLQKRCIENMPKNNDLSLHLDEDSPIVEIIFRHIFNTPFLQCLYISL
Procedure: In this test system, ovarian microsomes are obtained from rats treated with pregnant mares serum gonadotropin. Test compounds are added to reaction vials containing 0.1 μM 4-androstene-3,17-dione, 100,000 dpm 1,2[^3 H]-androstenedione, the microsomes and a NADPH generating system. The concentrations of the inhibitors tested ranged between 0.005 and 10 μM.

[2] = tested on: DMBA-induced mammary tumors; test: DMBA-Induced Mammary Tumor Inhibition; type: in vivo, female Sprague-Dawley rats; conditions: 300 ppm in diet (approx. 30 mg/kg/day)
Procedure: Mammary tumors were produced in female Sprague-Dawley rats which were 50-60 days old by the gavage administration of 20 mg of 7,12-dimethylbenz[a]anthracene (DMBA). About six weeks after DMBA administration, the mammary glands were palpated at weekly intervals for the appearance of tumors. Whenever one or more tumors appeared and were measurable in an animal, that animal was selected for experimentation. […] Each control and test group contained 8 animals. The test compound was administered mixed into the food at a concentration of 300 ppm (corresponding to an appropriate daily dose of 30 mg/kg). The experiment included a group of control rats having tumors and were given food without the compound admixed. […] The area of each tumor was calculated by multiplying the shortest and longest diameters of the tumor. The treatment and measurement of animals continued for 5 weeks at which time the final areas of the tumors were determined.

[3] = tested on: estrogen synthesis (aromatization); test: Estrogen Synthesis Inhibition in Rats (uterine weight and ovarian steroid concentration); type: in vivo, immature female Wistar rats; conditions: 7 days; for Mean Uterine Weight: testosterone propionate-treated, significantly different from testosterone-treated control (163.88); for Mean Steroid Concentration, estriol / Mean Steroid Concentration, estradiol: ovary; for Mean Steroid Concentration, estriol: testosterone-treated control 0.68; for Mean Steroid Concentration, estradiol: testosterone-treated control 1.29
Procedure: Test compounds were administered for seven days as a component of the diet. Control animals received diet without the test compound. Beginning on the fourth day of the test, all animals treated with the test compound and one half of the control animals were given a subcutaneous injection of 1.0 mg of testosterone propionate in corn oil. The remaining control animals received only an equivalent volume of corn oil.
After two hours, the animals were killed by decapitation. Uteri were isolated, trimmed of extraneous connective tissue, and weighed.
The ovarian steroids were extracted with 1.5 ml of 9:1 (v/v) toluene/ethanol to which had been added 25 to 100 mcg. each of unlabelled estradiol, estriol, and estrone, and approximately 1000 dpm of [^14 C]-estradiol. The samples were vortexed, centrifuged at 500×g for 10 minutes, and the organic phase was transferred to a conical vial. Two additional extractions were performed on the residue in the same way. The pooled organic extracts were evaporated for subsequent thin-layer chromatography.
Ovarian proteins were precipitated by the addition of 5.0 ml of ethanol to the remaining aqueous phase. After an overnight incubation at 4° C., the samples were centrifuged at 1500×g for 10 minutes. The supernatant was discarded, and the pellet was dissolved in 0.3 N potassium hydroxide.
The organic residue from each above extraction was redissolved in 9:1 (v/v) dichloromethane/methanol. The solution of each sample was applied to separate silica gel thin layer chromatography plates which contained a fluorescent indicator. The plates were developed in the first dimension with 160:38:1.5:0.5 (v/v/v/v) dichloromethane/ethyl acetate/methanol/acetic acid to within 3 cm of the top of the plate. After air-drying, the plate was developed in the second dimension with 180:19:1 (v/v/v) dichloromethane/methanol/ammonium hydroxide. The plate was air-dried and viewed under 254 nm UV light.
The visible spots were marked, and the plates were sprayed with primulin (0.001% in 4:1 v/v acetone/water) according to the method of Wright, J. Chromatography, 59, 220 (1971) which allowed for the identification of additional steroids under 365 nm UV light. The spots were scraped from the plate using a glass wool plugged Pasteur pipet attached to a vacuum line. The steroids were eluted directly into scintillation vials by the addition of 0.2 ml of dichloromethane followed by two washes each of 2.0 ml of methanol. The organic solvent was evaporated and 10.0 ml of scintillation fluid (Beckman Ready Solv-NA) was added to the vials. Samples were analyzed by liquid scintillation spectrometry. Corrections were made based on the recoveries of the [^14 C]-steroid. Steroid concentrations are expressed as femtomoles per milligram protein.

[4] = 30 ppm in feed (approx. 3 mg/kg/day)

SMILES | EC50 [1] | also measured
OC(c1cccnc1)(c1cccc(Br)c1)c1cccc(Br)c1 [α,α-bis(3-bromophenyl)-3-pyridinemethanol] | 2200 nM | 
O=[N+]([O-])c1ccc(Cc2ccncc2)cc1 [4-(4-nitrobenzyl)pyridine] | 980 nM | 
OC(c1ccccc1)(c1cccnc1)c1ccc(F)cc1F (stereo not drawn) [α-(2,4-difluorophenyl)-α-phenyl-3-pyridinemethanol] | 2050 nM | 
OC(Cc1ccc(Cl)cc1Cl)(Cc1ccc(Cl)cc1Cl)c1cccnc1 [α,α-bis(2,4-dichlorobenzyl)-3-pyridinemethanol hydrochloride] | 1850 nM | 
OC(Cc1ccc(Cl)cc1)(Cc1ccc(Cl)cc1)c1cccnc1 [α,α-bis(4-chlorobenzyl)-3-pyridinemethanol] | > 5000 nM | 
OC(c1ccc(Cl)cc1)c1cccnc1 (stereo not drawn) [α-(3-pyridyl)-4-chlorobenzyl alcohol] | 2400 nM | 
Clc1ccc(Cc2ccncc2)cc1 [4-(4-chlorobenzyl)pyridine] | 550 nM | 
OC(Cc1ccc(Cl)cc1Cl)(c1ccc(Cl)cc1)c1cccnc1 (stereo not drawn) [α-(2,4-dichlorobenzyl)-α-(4-chlorophenyl)-3-pyridinemethanol] | 3200 nM | 
Cc1cncc(C(O)(c2ccccc2)c2ccc(Cl)cc2)c1 (stereo not drawn) [α-(4-chlorophenyl)-5-methyl-α-phenyl-3-pyridinemethanol] | 4100 nM | 
OC(Cc1ccc(Cl)cc1)(Cc1ccc(Cl)cc1Cl)c1cccnc1 (stereo not drawn) [α-(4-chlorobenzyl)-α-(2,4-dichlorobenzyl)-3-pyridinemethanol] | 2400 nM | 
OC(Cc1ccc(Cl)c(Cl)c1)(c1ccc(Cl)cc1)c1cccnc1 (stereo not drawn) [α-(3,4-dichlorobenzyl)-α-(4-chlorophenyl)-3-pyridinemethanol] | 3150 nM | 
OC(c1ccc(Cl)cc1)(c1cccnc1)c1ccc2c(c1)OCO2 (stereo not drawn) [α-(4-chlorophenyl)-α-(3,4-methylenedioxyphenyl)-3-pyridinemethanol] | 500 nM | 
CCCN(CCC)C(c1ccc(Cl)cc1)c1cccnc1 (stereo not drawn) [α-(4-chlorophenyl)-N,N--di(n-propyl)-3-pyridylmethylamine] | 150 nM | 
Clc1ccccc1C(c1ccncc1)c1ccccc1Cl [4-bis(2-chlorophenyl)methylpyridine] | 490 nM | 
OC(Cc1ccc(Cl)cc1)(c1ccncc1)c1ccc(Cl)cc1 (stereo not shown) [1,2-bis(4-chlorophenyl)-1-(4-pyridyl)ethanol] | 185 nM | 
OC(Cc1ccccc1)(Cc1ccccc1)c1cccnc1 [α,α-dibenzyl-3-pyridinemethanol] | 2850 nM | 
OC(Cc1ccc(Cl)cc1)(c1cccnc1)c1cccc(Cl)c1 (stereo not drawn) [α-(4-chlorobenzyl)-α-(3-chlorophenyl)-3-pyridinemethanol] | 3200 nM | 
OC(Cc1ccc(Cl)cc1Cl)(c1ccc(Cl)cc1)c1cccnc1 (stereo not drawn) [α-(2,4-dichlorobenzyl)-α-(4-chlorophenyl)-3-pyridinemethanol hydrochloride] | > 5000 nM | 
CCCSC(c1ccc(Cl)cc1)(c1ccc(Cl)cc1)c1cccnc1 [3-[α-(4-chlorophenyl)-α-(n-propylthio)-4-chlorobenzyl]pyridine] | 1750 nM | 
CN(C)c1ccc(C(O)(c2ccncc2)c2ccc(N(C)C)cc2)cc1 [α,α-bis[4-(dimethylamino)phenyl]-4-pyridinemethanol] | 3400 nM | 
OC(c1ccc(Cl)cc1)(c1ccc(Cl)cc1)c1cccnc1 [α,α-bis(4-chlorophenyl)-3-pyridinemethanol] |  | Mean Tumor Area, Finish ([2]; after 5 weeks, control 1140): 433 mm^2; Mean Tumor Area, Start ([2]; start of 5-week test, control 73.9): 108.8 mm^2; Mean Uterine Weight ([3]; 30 ppm in feed (approx. 3 mg/kg/day), 4 animals, p < 0.05): 127.25 mg; Mean Uterine Weight ([3]; 300 ppm in feed (approx. 30 mg/kg/day), 5 animals, p < 0.05): 87.80 mg; Mean Steroid Concentration, estriol [3, 4]: 0.70 femtomoles per milligram of protein; Mean Steroid Concentration, estradiol [3, 4]: 1.04 femtomoles per milligram of protein; Mean Steroid Concentration, estriol ([3]; 300 ppm in feed (approx. 30 mg/kg/day)): 0.39 femtomoles per milligram of protein; Mean Steroid Concentration, estradiol ([3]; 300 ppm in feed (approx. 30 mg/kg/day), p < 0.05): 0.36 femtomoles per milligram of protein
Cc1ccc(C(O)(c2ccccc2)c2cccnc2)cc1 (stereo not drawn) [α-(4-methylphenyl)-α-phenyl-3-pyridinemethanol] | 2400 nM | 
OC(c1cccnc1)(c1ccc(Cl)cc1Cl)c1ccc(Cl)cc1Cl [α,α-bis(2,4-dichlorophenyl)-3-pyridinemethanol hydrochloride] | 4000 nM | 
OC(Cc1ccc(Cl)cc1)(c1ccc(Cl)cc1)c1cccnc1 (stereo not drawn) [α-(4-chlorobenzyl)-α-(4-chlorophenyl)-3-pyridinemethanol] | 2900 nM | 
